Assay results as given in patent publication US8637536B2, “Pyrimidinone compounds for use in the treatment of diseases or conditions mediated by Lp-PLA2” (Glaxo Group Limited, priority 2010, dated 2014).
Counter-ions that a name gives are not always drawn.

molecular target: T1, recombinant human Lp-PLA2 (Homo sapiens, UniProt Q13093); assay: Recombinant human Lp-PLA2 assay (rhLp-PLA2, PED6 assay); format: biochemical; conditions: text thresholds; upper limit for pIC50 in this assay is 9.3; read-out: pIC50 values in the PED6 assay (converted)
T1 sequence (Q13093 22-441): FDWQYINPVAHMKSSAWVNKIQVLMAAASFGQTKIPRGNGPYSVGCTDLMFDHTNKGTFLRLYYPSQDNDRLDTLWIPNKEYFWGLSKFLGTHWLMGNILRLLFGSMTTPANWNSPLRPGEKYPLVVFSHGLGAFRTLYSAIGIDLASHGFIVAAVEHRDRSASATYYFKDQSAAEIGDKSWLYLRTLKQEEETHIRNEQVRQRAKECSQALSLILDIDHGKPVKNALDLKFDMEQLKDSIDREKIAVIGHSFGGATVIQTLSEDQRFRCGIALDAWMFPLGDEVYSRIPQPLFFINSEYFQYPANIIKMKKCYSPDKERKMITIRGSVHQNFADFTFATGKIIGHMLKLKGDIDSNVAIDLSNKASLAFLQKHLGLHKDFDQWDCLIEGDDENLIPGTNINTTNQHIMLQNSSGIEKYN
Description: (1) Recombinant Human Lp-PLA2 Assay (rhLp-PLA2) (Also Referred to as “PED6” Assay)
N-((6-(2,4-dinitrophenyl)amino)-hexanoyl)-2-(4,4-difluoro-5,7-dimethyl-4-bora-3a,4a-diaza-s-indacene-3-pentanoyl)-1-hexadecanoyl-sn-glycero-3-phosphoethanolamine, triethylammonium salt (PED6) is a commercially available fluorescently-labelled phospholipid, which is commercially available from Molecular Probes. There is a quenching […] position and a Bodipy fluorescein (FL) group in the sn2 position.
The PED6 assay was run as an unquenched 10 μL assay. Compounds source plate was prepared by making 1:3 (by volume) serial dilution of the compounds into pure DMSO on 384-well microplate. […] 5 μL of recombinant human Lp-PLA2 enzyme (2 nM rhLp-PLA2 in assay buffer of 50 mM HEPES, pH7.4, 150 mM NaCl, 1 mM CHAPS) was added to each well of the plate with compounds. Plates were centrifuged for 10 sec at 500 rpm. […] Plates were centrifuged for 10 sec at 500 rpm. Plate was covered to protect from light and incubated for 20 min at room temperature. […] PIC50 data, curve and QC analysis was conducted by using XL fit module in Excel.

SMILES	IC50 [nM]
Cn1cc(Cc2c[nH]c(SCc3ccc(Oc4ccc(Cl)c(C(F)(F)F)c4)c(C#N)c3)nc2=O)cn1 [E58, 2-(4-chloro-3-(trifluoromethyl)phenoxy)-5-(((5-((1-methyl-1H-pyrazol-4-yl)methyl)-4-oxo-1,4-dihydropyrimidin-2-yl)thio)methyl)benzonitrile, trifluoroacetic acid salt]	≤ 1
N#Cc1cc(CCSc2nc(=O)c(Cc3cncnc3)c[nH]2)ccc1Oc1ccc(Cl)c(C(F)(F)F)c1 [E118, 2-{[4-chloro-3-(trifluoromethyl)phenyl]oxy}-5-(2-{[4-oxo-5-(5-pyrimidinylmethyl)-1,4-dihydro-2-pyrimidinyl]thio}ethyl)benzonitrile]	≤ 1
COc1ncc(Cc2c[nH]c(OCCc3ccc(Oc4c(F)cc(Cl)cc4F)cc3)nc2=O)cn1 [E181, 2-(4-(4-chloro-2,6-difluorophenoxy)phenethoxy)-5-((2-methoxypyrimidin-5-yl)methyl)pyrimidin-4(1H)-one]	≤ 10
COc1ncc(Cc2c[nH]c(SCc3ccc(Oc4ccc(F)cc4)cc3)nc2=O)cn1 [E52, 2-((4-(4-fluorophenoxy)benzyl)thio)-5-((2-methoxypyrimidin-5-yl)methyl)pyrimidin-4(1H)-one]	≤ 10
COc1ncc(Cc2cn(C)c(OCCc3ccc(Oc4ccc(Cl)c(C(F)(F)F)c4)cc3)nc2=O)cn1 [E25, 2-{[2-(4-{[4-Chloro-3-(trifluoromethyl)phenyl]oxy}phenyl)ethyl]oxy}-1-methyl-5-{[2-(methyloxy)-5-pyrimidinyl]methyl}-4(1H)-pyrimidinone]	≤ 1
Cn1cc(Cc2cncnc2)c(=O)nc1SCCc1ccc(Oc2ccc(Cl)c(C(F)(F)F)c2)cc1 [E116, 2-{[2-(4-{[4-chloro-3-(trifluoromethyl)phenyl]oxy}phenyl)ethyl]thio}-1-methyl-5-(5-pyrimidinylmethyl)-4(1H)-pyrimidinone]	≤ 1
O=c1nc(OCCc2ccc(Oc3ccc(Cl)c(C(F)(F)F)c3)c(F)c2)[nH]cc1Cc1cncnc1 [E31, 2-{[2-(4-{[4-Chloro-3-(trifluoromethyl)phenyl]oxy}-3-fluorophenyl)ethyl]oxy}-5-(5-pyrimidinylmethyl)-4(1H)-pyrimidinone trifluoroacetate]	≤ 1
O=c1nc(NCCc2ccc(Oc3ccc(Cl)c(C(F)(F)F)c3)cc2)[nH]cc1Cc1cncnc1 [E11, 2-{[2-(4-{[4-Chloro-3-(trifluoromethyl)phenyl]oxy}phenyl)ethyl]amino}-5-(5-pyrimidinylmethyl)-4(1H)-pyrimidinone]	≤ 1
O=c1nc(OCCc2cc(F)c(Oc3ccc(Cl)c(C(F)(F)F)c3)c(F)c2)[nH]cc1Cc1cncnc1 [E29, 2-{[2-(4-{[4-Chloro-3-(trifluoromethyl)phenyl]oxy}-3,5-difluorophenyl)ethyl]oxy}-5-(5-pyrimidinylmethyl)-4(1H)-pyrimidinone]	≤ 1
COc1ncc(Cc2c[nH]c(OCCc3ccc(Oc4ccc(Cl)c(C(F)(F)F)c4)cc3)nc2=O)cn1 [E24, 2-{[2-(4-{[4-Chloro-3-(trifluoromethyl)phenyl]oxy}phenyl)ethyl]oxy}-5-{[2-(methyloxy)-5-pyrimidinyl]methyl}-4(1H)-pyrimidinone]	≤ 1
COc1ncc(Cc2cn(C)c(SCc3ccc(Oc4ccc(F)cc4)cc3)nc2=O)cn1 [E53, 2-[({4-[(4-fluorophenyl)oxy]phenyl}methyl)thio]-1-methyl-5-{[2-(methyloxy)-5-pyrimidinyl]methyl}-4(1H)-pyrimidinone]	≤ 10
COc1ncc(Cc2c[nH]c(SCc3ccc(Oc4ccc(Cl)c(C(F)(F)F)c4)cc3)nc2=O)cn1 [E74, 2-{[(4-{[4-chloro-3-(trifluoromethyl)phenyl]oxy}phenyl)methyl]thio}-5-{[2-(methyloxy)-5-pyrimidinyl]methyl}-4(1H)-pyrimidinone]	≤ 1
COc1ncc(Cc2c[nH]c(SCc3ccc(Oc4cccc(C(F)(F)F)c4)c(C#N)c3)nc2=O)cn1 [E100, 5-{[(5-{[2-(methyloxy)-5-pyrimidinyl]methyl}-4-oxo-1,4-dihydro-2-pyrimidinyl)thio]methyl}-2-{[3-(trifluoromethyl)phenyl]oxy}benzonitrile]	≤ 1
Cn1cc(Cc2cn(C)c(SCc3ccc(Oc4ccc(F)c(C(F)(F)F)c4)c(C#N)c3)nc2=O)cn1 [E60, 2-(4-fluoro-3-(trifluoromethyl)phenoxy)-5-(((1-methyl-5-((1-methyl-1H-pyrazol-4-yl)methyl)-4-oxo-1,4-dihydropyrimidin-2-yl)thio)methyl)benzonitrile, trifluoroacetic acid salt]	≤ 1
COc1ncc(Cc2c[nH]c(SCc3ccc(Oc4ccc(F)c(C(F)(F)F)c4)c(C#N)c3)nc2=O)cn1 [E89, 2-{[4-fluoro-3-(trifluoromethyl)phenyl]oxy}-5-{[(5-{[2-(methyloxy)-5-pyrimidinyl]methyl}-4-oxo-1,4-dihydro-2-pyrimidinyl)thio]methyl}benzonitrile]	≤ 1
COc1ncc(Cc2c[nH]c(OCCc3ccc(Oc4ccc(C(F)(F)F)cn4)cc3)nc2=O)cn1 [E137, 5-((2-methoxypyrimidin-5-yl)methyl)-2-(4-((5-(trifluoromethyl)pyridin-2-yl)oxy)phenethoxy)pyrimidin-4(1H)-one]	≤ 10
N#Cc1cc(CSc2nc(=O)c(Cc3cncnc3)c[nH]2)ccc1Oc1cccc(C(F)(F)F)c1 [E96, 5-({[4-oxo-5-(5-pyrimidinylmethyl)-1,4-dihydro-2-pyrimidinyl]thio}methyl)-2-{[3-(trifluoromethyl)phenyl]oxy}benzonitrile]	≤ 1
Cn1cc(Cc2cncnc2)c(=O)nc1OCCc1cc(F)c(Oc2ccc(Cl)c(C(F)(F)F)c2)c(F)c1 [E30, 2-{[2-(4-{[4-Chloro-3-(trifluoromethyl)phenyl]oxy}-3,5-difluorophenyl)ethyl]oxy}-1-methyl-5-(5-pyrimidinylmethyl)-4(1H)-pyrimidinone]	≤ 1
CCc1cn(C)c(SCc2ccc(Oc3ccc(Cl)c(C(F)(F)F)c3)c(C#N)c2)nc1=O [E64, 2-{[4-chloro-3-(trifluoromethyl)phenyl]oxy}-5-{[(5-ethyl-1-methyl-4-oxo-1,4-dihydro-2-pyrimidinyl)thio]methyl}benzonitrile]	≤ 10
COc1ncc(Cc2c[nH]c(SCCc3ccc(Oc4ccc(Cl)c(C(F)(F)F)c4)c(C#N)c3)nc2=O)cn1 [E119, 2-{[4-chloro-3-(trifluoromethyl)phenyl]oxy}-5-{2-[(5-{[2-(methyloxy)-5-pyrimidinyl]methyl}-4-oxo-1,4-dihydro-2-pyrimidinyl)thio]ethyl}benzonitrile]	≤ 1

same assay, conditions: upper limit for pIC50 obtained in this PED6 assay is 9.3; read-out: rhLp-PLA2 (PED6 assay) (pIC50) (converted)

SMILES	IC50 [nM]
Cn1cc(Cc2c[nH]c(SCc3ccc(Oc4ccc(Cl)c(C(F)(F)F)c4)c(C#N)c3)nc2=O)cn1 [E58, 2-(4-chloro-3-(trifluoromethyl)phenoxy)-5-(((5-((1-methyl-1H-pyrazol-4-yl)methyl)-4-oxo-1,4-dihydropyrimidin-2-yl)thio)methyl)benzonitrile, trifluoroacetic acid salt]	≤ 0.501
Cn1cc(Cc2c[nH]c(SCCc3ccc(Oc4ccc(Cl)c(C(F)(F)F)c4)cc3)nc2=O)cn1 [E112]	≤ 0.501
Cn1cc(Cc2c[nH]c(OCCc3ccc(Oc4ccc(Cl)c(C(F)(F)F)c4)cc3)nc2=O)cn1 [E22, 2-{[2-(4-{[4-Chloro-3-(trifluoromethyl)phenyl]oxy}phenyl)ethyl]oxy}-5-[(1-methyl-1H-pyrazol-4-yl)methyl]-4(1H)-pyrimidinone trifluoroacetate]	0.794
O=c1nc(NCCc2ccc(Oc3ccc(Cl)c(C(F)(F)F)c3)cc2)[nH]cc1Cc1cncnc1 [E11, 2-{[2-(4-{[4-Chloro-3-(trifluoromethyl)phenyl]oxy}phenyl)ethyl]amino}-5-(5-pyrimidinylmethyl)-4(1H)-pyrimidinone]	1
COc1ncc(Cc2c[nH]c(OCCc3ccc(Oc4ccc(Cl)c(C(F)(F)F)c4)cc3)nc2=O)cn1 [E24, 2-{[2-(4-{[4-Chloro-3-(trifluoromethyl)phenyl]oxy}phenyl)ethyl]oxy}-5-{[2-(methyloxy)-5-pyrimidinyl]methyl}-4(1H)-pyrimidinone]	0.794
COc1ncc(Cc2c[nH]c(SCc3ccc(Oc4ccc(Cl)c(C(F)(F)F)c4)cc3)nc2=O)cn1 [E74, 2-{[(4-{[4-chloro-3-(trifluoromethyl)phenyl]oxy}phenyl)methyl]thio}-5-{[2-(methyloxy)-5-pyrimidinyl]methyl}-4(1H)-pyrimidinone]	0.631
O=c1nc(OCCc2ccc(Oc3ccc(Cl)c(C(F)(F)F)c3)cc2)[nH]cc1Cc1c(F)cc(F)cc1F [E129, 2-{[2-(4-{[4-chloro-3-(trifluoromethyl)phenyl]oxy}phenyl)ethyl]oxy}-5-[(2,4,6-trifluorophenyl)methyl]-4(1H)-pyrimidinone]	3.98
Cn1cc(Cc2c[nH]c(SCc3ccc(Oc4ccc(Cl)c(C(F)(F)F)c4)c(C#N)c3)nc2=O)c2ccccc21 [E81, 2-(4-chloro-3-(trifluoromethyl)phenoxy)-5-(((5-((1-methyl-1H-indol-3-yl)methyl)-4-oxo-1,4-dihydropyrimidin-2-yl)thio)methyl)benzonitrile]	25.1
